Data published in article PMC2812684 (Biochimica et biophysica acta, 2009).
Read-outs that look alike come from different tables or passages of the source.

Key:
Type in all cases: cell-based
[1] = target: T1, succinate dehydrogenase (complex II) (Rattus norvegicus, UniProt Q920L2); assay: Inhibition of respiration by 3-nitropropionic acid in whole; conditions: endogenous substrates
[2] = target: T1, succinate dehydrogenase (complex II); conditions: for IC50: IC50 Complex II
[3] = target: T2, cytochrome bc1 oxidoreductase (complex III) (Rattus norvegicus, UniProt P00159); assay: Inhibition of respiration by antimycin A in whole; conditions: endogenous substrates
[4] = target: T2, cytochrome bc1 oxidoreductase (complex III); conditions: for decrease of IC50 with exogenous vs endogenous substrates: excess exogenous glutamate, malate, succinate

T1 sequence (Q920L2 whole entry, looked up, one chain of several): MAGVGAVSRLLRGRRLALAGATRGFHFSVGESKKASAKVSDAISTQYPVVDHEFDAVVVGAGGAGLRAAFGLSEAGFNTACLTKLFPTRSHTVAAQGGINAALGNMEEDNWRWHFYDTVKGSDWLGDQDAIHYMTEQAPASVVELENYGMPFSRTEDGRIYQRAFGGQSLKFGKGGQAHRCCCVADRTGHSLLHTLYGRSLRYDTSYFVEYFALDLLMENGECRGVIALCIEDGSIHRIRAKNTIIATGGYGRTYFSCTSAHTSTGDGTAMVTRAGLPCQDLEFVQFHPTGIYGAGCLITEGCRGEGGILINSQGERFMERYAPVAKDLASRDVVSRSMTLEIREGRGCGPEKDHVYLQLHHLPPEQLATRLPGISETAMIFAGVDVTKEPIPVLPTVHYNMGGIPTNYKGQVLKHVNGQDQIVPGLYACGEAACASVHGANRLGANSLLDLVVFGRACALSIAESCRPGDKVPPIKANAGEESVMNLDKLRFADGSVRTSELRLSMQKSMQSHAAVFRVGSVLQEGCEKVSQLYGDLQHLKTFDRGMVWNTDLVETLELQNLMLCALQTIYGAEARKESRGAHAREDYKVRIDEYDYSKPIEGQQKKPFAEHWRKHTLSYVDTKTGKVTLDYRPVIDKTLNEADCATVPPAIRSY

SMILES	percent of initial rate remaining at flux point ([1]; 8 mM 3-NP, neurons from middle-age rats) [%]	increase of IC50 with age ([1]; old vs middle-age neurons, insignificant) [%]	IC50 ([2]; MA) [µM]	IC50 ([2]; Old) [µM]	increase of IC50 with exogenous vs endogenous substrates ([2]; neurons from middle-age rats, complex I inhibited, excess exogenous succinate) [%]	decrease of IC50 with exogenous vs endogenous substrates ([2]; neurons from old rats, complex I inhibited, excess exogenous succinate) [%]	decrease of IC50 with age ([2]; old vs middle-age permeabilized neurons, exogenous substrates, insignificant) [%]	IC50 ([3]; IC50 Complex III, Old, neurons from old (24 month) rats) [µM]	decrease of IC50 with age ([3]; old vs middle-age neurons, p=0.006) [%]	decrease of IC50 with exogenous vs endogenous substrates ([4]; neurons from middle-age rats) [%]	decrease of IC50 with exogenous vs endogenous substrates ([4]; neurons from old rats) [%]	decrease of IC50 with age ([4]; old vs middle-age permeabilized neurons, exogenous substrates, p=0.0001) [%]
O=C(O)CC[N+](=O)[O-] [3-NP, 3-nitropropionic acid]	39	49	6100	2100	7	75	66					
CCCCCC[C@H]1C(=O)O[C@H](C)[C@H](NC(=O)c2cccc(NC=O)c2O)C(=O)O[C@@H](C)[C@@H]1OC(=O)CC(C)C [antimycin A]								0.16	35	46	68	60
